Experimental data from ChEMBL document CHEMBL1141971, “Structure-guided design of pyrazolo[1,5-a]pyrimidines as inhibitors of human cyclin-dependent kinase 2” (Bioorg Med Chem Lett, 2005).

Biological target: Cyclin-dependent kinase 2 (Homo sapiens, UniProt P24941)
Assay: Inhibitory concentration for Cyclin-dependent kinase 2 was determined in the presence of 100 um ATP (Km 50 uM)
Details: not given

Q: Which IC50 does the source give for `CCN[C@H]1CC[C@H](Nc2cc(Nc3ccc(S(=O)(=O)N(C)C)cc3)n3ncc(C(C)C)c3n2)CC1` here?
A: Its IC50 is 61 nM.

Q: How did the IC50 turn out when `CN(C)S(=O)(=O)c1ccc(Nc2cc(N[C@H]3CC[C@H](N)CC3)nc3c(Cl)cnn23)cc1` was run?
A: The IC50 was 8 nM.

Q: Which IC50 does the source give for `CC(C)c1cnn2c(Nc3ccc(S(=O)(=O)N(C)C)cc3)cc(NC3CCCC(N)C3)nc12` (stereo not drawn) here?
A: The IC50 was 2100 nM.

Q: How did the IC50 turn out when `N[C@H]1CC[C@H](Nc2cc(Nc3ccc(S(=O)(=O)c4ccccc4)cc3)n3ncc(Br)c3n2)CC1` was run?
A: The IC50 was 16 nM.

Q: For `CC(C)COc1cc(Nc2ccc(S(=O)(=O)N(C)C)cc2)n2ncc(C(C)C)c2n1`, which IC50 is on record?
A: The IC50 was 1200 nM.

Q: With `CN(C)S(=O)(=O)c1ccc(Nc2cc(N[C@H]3CC[C@H](N)CC3)nc3c(Br)cnn23)cc1` as the compound, how does the IC50 read?
A: The IC50 was 10 nM.

Q: For `N[C@H]1CC[C@H](Nc2cc(Nc3ccc(S(=O)(=O)c4cccs4)cc3)n3ncc(Cl)c3n2)CC1`, which IC50 is on record?
A: The IC50 was 11 nM.

Biological target: Glycogen synthase kinase-3 beta (Homo sapiens, UniProt P49841)
Sequence (P49841 whole entry): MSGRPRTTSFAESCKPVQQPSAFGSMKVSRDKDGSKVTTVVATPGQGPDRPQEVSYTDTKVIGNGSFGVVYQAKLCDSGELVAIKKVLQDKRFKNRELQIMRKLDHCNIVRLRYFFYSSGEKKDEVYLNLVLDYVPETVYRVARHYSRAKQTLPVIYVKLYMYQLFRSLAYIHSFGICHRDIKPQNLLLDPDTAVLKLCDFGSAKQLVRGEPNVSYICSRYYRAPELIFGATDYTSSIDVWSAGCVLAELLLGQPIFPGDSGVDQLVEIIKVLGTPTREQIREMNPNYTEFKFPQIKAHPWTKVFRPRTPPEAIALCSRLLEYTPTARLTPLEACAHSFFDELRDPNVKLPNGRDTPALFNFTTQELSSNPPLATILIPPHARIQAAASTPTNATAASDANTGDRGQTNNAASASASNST
Assay: Inhibitory concentration for Glycogen synthase kinase-3 beta was determined in the presence of 10 um ATP (Km 10 uM)
Details: not given

Q: `CCN[C@H]1CC[C@H](Nc2cc(Nc3ccc(S(=O)(=O)N(C)C)cc3)n3ncc(C(C)C)c3n2)CC1` was tested. Which IC50 did it give?
A: Its IC50 is greater than 50000 nM.

Q: How did the IC50 turn out when `CC(C)c1cnn2c(Nc3ccc(S(=O)(=O)N(C)C)cc3)cc(N[C@H]3CC[C@H](N)CC3)nc12` was run?
A: Its IC50 is 40000 nM.

Q: Which IC50 does the source give for `CC(C)c1cnn2c(Nc3ccc(S(=O)(=O)N(C)C)cc3)cc(O[C@H]3CC[C@H](N)CC3)nc12` here?
A: The IC50 was 28000 nM.

Q: Which IC50 does the source give for `CN(C)S(=O)(=O)c1ccc(Nc2cc(N[C@H]3CC[C@H](N)CC3)nc3c(Cl)cnn23)cc1` here?
A: Its IC50 is 5100 nM.

Q: `CC(C)c1cnn2c(Nc3ccc(S(=O)(=O)N(C)C)cc3)cc(NC3CCCC(N)C3)nc12` (stereo not drawn) was tested. Which IC50 did it give?
A: The IC50 was greater than 50000 nM.

Q: How did the IC50 turn out when `CN(C)S(=O)(=O)c1ccc(Nc2cc(N[C@H]3CC[C@H](N)CC3)nc3c(C4CCCC4)cnn23)cc1` was run?
A: The IC50 was 22000 nM.

Q: `N[C@H]1CC[C@H](Nc2cc(Nc3ccc(S(=O)(=O)c4ccccc4)cc3)n3ncc(Br)c3n2)CC1` was tested. Which IC50 did it give?
A: The IC50 was 5300 nM.

Q: How did the IC50 turn out when `CC(C)COc1cc(Nc2ccc(S(C)(=O)=O)cc2)n2ncc(C(C)C)c2n1` was run?
A: Its IC50 is 12000 nM.

Q: Which IC50 does the source give for `CN(C)S(=O)(=O)c1ccc(Nc2cc(N[C@H]3CC[C@H](N)CC3)nc3c(C#N)cnn23)cc1` here?
A: The IC50 was 460 nM.

Q: For `CN(C)S(=O)(=O)c1ccc(Nc2cc(N[C@H]3CC[C@H](N)CC3)nc3c(Br)cnn23)cc1Cl`, which IC50 is on record?
A: Its IC50 is 8700 nM.

Q: `CC(C)COc1cc(Nc2ccc(S(=O)(=O)N(C)C)cc2)n2ncc(C(C)C)c2n1` was tested. Which IC50 did it give?
A: Its IC50 is 50000 nM.

Q: Which IC50 does the source give for `CCN(CC)[C@H]1CC[C@H](Nc2cc(Nc3ccc(S(=O)(=O)N(C)C)cc3)n3ncc(C(C)C)c3n2)CC1` here?
A: The IC50 was greater than 50000 nM.

Q: With `CN(C)S(=O)(=O)c1ccc(Nc2cc(N[C@H]3CC[C@H](N)CC3)nc3c(Br)cnn23)cc1` as the compound, how does the IC50 read?
A: Its IC50 is 3400 nM.

System: HCT-116
Assay: Inhibitor concentration to reduce HCT 116 cell line (tumor) growth by 50% over 72 h
Format: functional
Details: Homo sapiens, HCT-116, 72 h

Q: `CCN[C@H]1CC[C@H](Nc2cc(Nc3ccc(S(=O)(=O)N(C)C)cc3)n3ncc(C(C)C)c3n2)CC1` was tested. Which GI50 did it give?
A: Its GI50 is 1200 nM.

Q: With `CC(C)c1cnn2c(Nc3ccc(S(=O)(=O)N(C)C)cc3)cc(N[C@H]3CC[C@H](N)CC3)nc12` as the compound, how does the GI50 read?
A: Its GI50 is 580 nM.

Q: How did the GI50 turn out when `CC(C)c1cnn2c(Nc3ccc(S(=O)(=O)N(C)C)cc3)cc(O[C@H]3CC[C@H](N)CC3)nc12` was run?
A: The GI50 was 710 nM.

Q: `CN(C)S(=O)(=O)c1ccc(Nc2cc(N[C@H]3CC[C@H](N)CC3)nc3c(Cl)cnn23)cc1` was tested. Which GI50 did it give?
A: Its GI50 is 2700 nM.

Q: `CC(C)c1cnn2c(Nc3ccc(S(=O)(=O)N(C)C)cc3)cc(NC3CCCC(N)C3)nc12` (stereo not drawn) was tested. Which GI50 did it give?
A: Its GI50 is 3400 nM.

Q: How did the GI50 turn out when `N[C@H]1CC[C@H](Nc2cc(Nc3ccc(S(=O)(=O)c4ccccc4)cc3)n3ncc(Br)c3n2)CC1` was run?
A: Its GI50 is 80 nM.

Q: For `CC(C)COc1cc(Nc2ccc(S(C)(=O)=O)cc2)n2ncc(C(C)C)c2n1`, which GI50 is on record?
A: Its GI50 is 7800 nM.

Q: `CN(C)S(=O)(=O)c1ccc(Nc2cc(N[C@H]3CC[C@H](N)CC3)nc3c(C#N)cnn23)cc1` was tested. Which GI50 did it give?
A: Its GI50 is 11000 nM.

Q: Which GI50 does the source give for `CN(C)S(=O)(=O)c1ccc(Nc2cc(N[C@H]3CC[C@H](N)CC3)nc3c(Br)cnn23)cc1Cl` here?
A: The GI50 was 340 nM.

Q: For `CC(C)COc1cc(Nc2ccc(S(=O)(=O)N(C)C)cc2)n2ncc(C(C)C)c2n1`, which GI50 is on record?
A: The GI50 was 7600 nM.

Q: `CCN(CC)[C@H]1CC[C@H](Nc2cc(Nc3ccc(S(=O)(=O)N(C)C)cc3)n3ncc(C(C)C)c3n2)CC1` was tested. Which GI50 did it give?
A: The GI50 was 16000 nM.

Q: With `CN(C)S(=O)(=O)c1ccc(Nc2cc(N[C@H]3CC[C@H](N)CC3)nc3c(Br)cnn23)cc1` as the compound, how does the GI50 read?
A: Its GI50 is 910 nM.

Q: Which GI50 does the source give for `N[C@H]1CC[C@H](Nc2cc(Nc3ccc(S(=O)(=O)c4cccs4)cc3)n3ncc(Cl)c3n2)CC1` here?
A: The GI50 was 120 nM.
